Where a name gives a salt, the structure may show the parent alone.
Assay: in vitro release (dissolution) of active ingredient from microcapsules in strongly acidic (pH 1) and weakly acidic (pH 4.5) medium
Type: physicochemical
Details: for release of active ingredient from microcapsules (in words): strongly acidic and weakly acidic medium (pH 1 and 4.5)
Description: FIG. 1 is a graph depicting percent release as a function of time of an active ingredient from microcapsules prepared by spray solidification in carnauba wax.
FIGS. 2a and 2b are two graphs depicting percent release as a function of time of an active ingredient in, respectively, the hydrate and anhydrate forms.
FIGS. 3a and 3b are two graphs depicting percent release as a function of time of an active ingredient in, respectively, the hydrate and anhydrate forms.
FIGS. 4a and 4b are two graphs depicting percent release as a function of time of an active ingredient in, respectively, the hydrate and anhydrate forms.
FIGS. 5a and 5b are two graphs depicting percent release as a function of time of an active ingredient in, respectively, the hydrate and anhydrate forms.

Row | SMILES | release of active ingredient from microcapsules (in words) | release of active ingredient from wax-embedded microcapsules (in words) (embedded by method of EP-A-273,890 (carnauba wax, beeswax, ethylcellulose), FIG. 1, spray solidification in carnauba wax) | release of active ingredient from microcapsules (in words) (listed as ciprofloxacin betaine)
1 | O=C(O)c1cn(C2CC2)c2cc(N3CCNCC3)c(F)cc2c1=O [ciprofloxacin HCl] | delayed |  | 
2 | O=C(O)c1cn(C2CC2)c2cc(N3CCNCC3)c(F)cc2c1=O [ciprofloxacin] |  | does not lead, however, to the required rapid release of active ingredient | a rapid release of active ingredient is guaranteed

Reference: patent publication US6136347A, “Flavor-masked pharmaceutical compositions” (Bayer Aktiengesellschaft, priority 1992, dated 2000)
